Counter-ions that a name gives are not always drawn.
System: HiBiT-HSD17β13 fusion protein (N-terminal HiBiT-tagged HSD17β13 isoform D) in Huh7 HiBiT-HSD17β13 OE cells
Experiment: Whole-cell Huh7-HSD17B13 HiBiT assay (degrader potency and maximal efficacy, luminescence readout)
Assay type: cell-based, human
Details: 24 hour incubation, geometric mean, * = geometric mean for all forms tested (parent and salt forms); for DC50: read-out: Huh7_HIBIT-HSD17β13_DC50 GMean DC50; for Huh7_HIBIT-HSD17β13_DC50 GMean Asymptote Maximum: max. concentration 1 μM
How it was run: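 Luminescence from lytic HiBiT detection tracked residual HiBiT-HSD17β13 (isoform D, N-terminal tag) in a stable Huh7 overexpressing clone after 24 h compound treatment at 37° C, 11 concentrations up to 1 μM final. Percent effect used DMSO (zero) and parental Huh7 (high) wells; four-parameter fit gave 50% degradation; viability checked by CellTiter-Glo.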

Cc1sc([C@]23CC[C@](CNC(=O)c4cc(F)c(O)c(F)c4F)(CC2)CC3)nc1-c1ccnc(N2CCN(CCCc3ccc4c(c3)n(C)c(=O)n4C3CCC(=O)NC3=O)CC2)n1 (mixture of isomers) [Example 122, N-{[4-(4-{2-[4-(3-{1-[(3RS)-2,6-dioxopiperidin-3-yl]-3-methyl-2-oxo-2,3-dihydro-1H-benzimidazol-5-yl}propyl)piperazin-1-yl]pyrimidin-4-yl}-5-methyl-1,3-thiazol-2-yl)bicyclo[2.2.2]octan-1-yl]methyl}-2,3,5-trifluoro-4-hydroxybenzamide]
DC50: 0.23 nM | Huh7_HIBIT-HSD17β13_DC50 GMean Asymptote Maximum: 73%

Cn1c(=O)n(C2CCC(=O)NC2=O)c2ccc(CCCN3CCN(c4nc(-c5nc([C@]67CC[C@](CNC(=O)c8cc(F)c(O)c(F)c8F)(CC6)CC7)no5)cc(N5CCOCC5)n4)CC3)cc21 (mixture of isomers) [Example 123, N-{[4-(5-{2-[4-(3-{1-[(3RS)-2,6-dioxopiperidin-3-yl]-3-methyl-2-oxo-2,3-dihydro-1H-benzimidazol-5-yl}propyl)piperazin-1-yl]-6-(morpholin-4-yl)pyrimidin-4-yl}-1,2,4-oxadiazol-3-yl)bicyclo[2.2.2]octan-1-yl]methyl}-2,3,5-trifluoro-4-hydroxybenzamide]
DC50: 0.23 nM | Huh7_HIBIT-HSD17β13_DC50 GMean Asymptote Maximum: 79%

COc1c(C(=O)NC[C@]23CC[C@](c4noc(-c5ccnc(N6CCN(CCCc7ccc8c(c7)n(C)c(=O)n8C7CCC(=O)NC7=O)CC6)n5)n4)(CC2)CC3)cc(F)c(O)c1F (mixture of isomers) [Example 124, N-{[4-(5-{2-[4-(3-{1-[(3RS)-2,6-dioxopiperidin-3-yl]-3-methyl-2-oxo-2,3-dihydro-1H-benzimidazol-5-yl}propyl)piperazin-1-yl]pyrimidin-4-yl}-1,2,4-oxadiazol-3-yl)bicyclo[2.2.2]octan-1-yl]methyl}-3,5-difluoro-4-hydroxy-2-methoxybenzamide, trifluoroacetate salt]
DC50: 0.27 nM | Huh7_HIBIT-HSD17β13_DC50 GMean Asymptote Maximum: 72%

Cn1c(=O)n(C2CCC(=O)NC2=O)c2ccc(CCCN3CCN(c4nc(-c5nc([C@]67CC[C@](CNC(=O)c8cc(F)c(O)c(F)c8F)(CC6)CC7)no5)cc(-n5ccnc5)n4)CC3)cc21 (mixture of isomers) [Example 125, N-{[4-(5-{2-[4-(3-{1-[(3RS)-2,6-dioxopiperidin-3-yl]-3-methyl-2-oxo-2,3-dihydro-1H-benzimidazol-5-yl}propyl)piperazin-1-yl]-6-(1H-imidazol-1-yl)pyrimidin-4-yl}-1,2,4-oxadiazol-3-yl)bicyclo[2.2.2]octan-1-yl]methyl}-2,3,5-trifluoro-4-hydroxybenzamide, formate salt]
DC50: 0.28 nM | Huh7_HIBIT-HSD17β13_DC50 GMean Asymptote Maximum: 85%

COc1nc(-c2ccc3cn([C@H]4CC[C@H](CNC(=O)c5cc(F)c(O)c(F)c5F)CC4)nc3c2)nc2c1CN(CCCc1ccc3c(c1)n(C)c(=O)n3C1CCC(=O)NC1=O)C2 (mixture of isomers) [Example 126, N-{[(1r,4r)-4-{6-[6-(3-{1-[(3RS)-2,6-dioxopiperidin-3-yl]-3-methyl-2-oxo-2,3-dihydro-1H-benzimidazol-5-yl}propyl)-4-methoxy-6,7-dihydro-5H-pyrrolo[3,4-d]pyrimidin-2-yl]-2H-indazol-2-yl}cyclohexyl]methyl}-2,3,5-trifluoro-4-hydroxybenzamide, trifluoroacetate salt]
DC50: 0.36 nM | Huh7_HIBIT-HSD17β13_DC50 GMean Asymptote Maximum: 84%

Cn1c(=O)n(C2CCC(=O)NC2=O)c2ccc(CCCN3CCN(c4nc(-c5nc([C@]67CC[C@](CNC(=O)c8cc(F)c(O)c(F)c8F)(CC6)CC7)no5)cc(N5CCCC5)n4)CC3)cc21 (mixture of isomers) [Example 127, N-{[4-(5-{2-[4-(3-{1-[(3RS)-2,6-dioxopiperidin-3-yl]-3-methyl-2-oxo-2,3-dihydro-1H-benzimidazol-5-yl}propyl)piperazin-1-yl]-6-(pyrrolidin-1-yl)pyrimidin-4-yl}-1,2,4-oxadiazol-3-yl)bicyclo[2.2.2]octan-1-yl]methyl}-2,3,5-trifluoro-4-hydroxybenzamide, trifluoroacetate salt]
DC50: 0.37 nM | Huh7_HIBIT-HSD17β13_DC50 GMean Asymptote Maximum: 79%

COc1cc(-c2nc([C@]34CC[C@](CNC(=O)c5cc(F)c(O)c(F)c5F)(CC3)CC4)no2)nc(N2CCN(CCCc3ccc4c(c3)n(C)c(=O)n4C3CCC(=O)NC3=O)CC2)n1 (mixture of isomers) [Example 128, N-{[4-(5-{2-[4-(3-{1-[(3RS)-2,6-dioxopiperidin-3-yl]-3-methyl-2-oxo-2,3-dihydro-1H-benzimidazol-5-yl}propyl)piperazin-1-yl]-6-methoxypyrimidin-4-yl}-1,2,4-oxadiazol-3-yl)bicyclo[2.2.2]octan-1-yl]methyl}-2,3,5-trifluoro-4-hydroxybenzamide]
DC50: 0.4 nM | Huh7_HIBIT-HSD17β13_DC50 GMean Asymptote Maximum: 79%

Cn1c(=O)n(C2CCC(=O)NC2=O)c2ccc(CCCN3Cc4ccc(-c5ccc6c(C7CC7)n([C@H]7CC[C@H](CNC(=O)c8cc(F)c(O)c(F)c8F)CC7)nc6c5)cc4C3)cc21 (mixture of isomers) [Example 129, N-{[(1r,4r)-4-{3-cyclopropyl-6-[2-(3-{1-[(3RS)-2,6-dioxopiperidin-3-yl]-3-methyl-2-oxo-2,3-dihydro-1H-benzimidazol-5-yl}propyl)-2,3-dihydro-1H-isoindol-5-yl]-2H-indazol-2-yl}cyclohexyl]methyl}-2,3,5-trifluoro-4-hydroxybenzamide, trifluoroacetate salt]
DC50: 0.42 nM | Huh7_HIBIT-HSD17β13_DC50 GMean Asymptote Maximum: 83%

Cn1c(=O)n(C2CCC(=O)NC2=O)c2ccc(CCCN3CCN(c4cnc(-c5ccn6cc([C@]78CC[C@](CNC(=O)c9cc(F)c(O)c(F)c9F)(CC7)CC8)nc6c5)cn4)CC3)cc21 (mixture of isomers) [Example 130, N-{[4-(7-{5-[4-(3-{1-[(3RS)-2,6-dioxopiperidin-3-yl]-3-methyl-2-oxo-2,3-dihydro-1H-benzimidazol-5-yl}propyl)piperazin-1-yl]pyrazin-2-yl}imidazo[1,2-a]pyridin-2-yl)bicyclo[2.2.2]octan-1-yl]methyl}-2,3,5-trifluoro-4-hydroxybenzamide, trifluoroacetate salt]
DC50: 0.5 nM | Huh7_HIBIT-HSD17β13_DC50 GMean Asymptote Maximum: 83%

O=C1CCC(N2Cc3cc(N4CCC(CCN5CCN(c6nccc(-c7nc([C@]89CC[C@](CNC(=O)c%10cc(F)c(O)c(F)c%10F)(CC8)CC9)no7)n6)CC5)CC4)ccc3C2=O)C(=O)N1 (mixture of isomers) [Example 132, N-({4-[5-(2-{4-[2-(1-{2-[(3RS)-2,6-dioxopiperidin-3-yl]-1-oxo-2,3-dihydro-1H-isoindol-5-yl}piperidin-4-yl)ethyl]piperazin-1-yl}pyrimidin-4-yl)-1,2,4-oxadiazol-3-yl]bicyclo[2.2.2]octan-1-yl}methyl)-2,3,5-trifluoro-4-hydroxybenzamide, trifluoroacetate salt]
DC50: 1.6 nM | Huh7_HIBIT-HSD17β13_DC50 GMean Asymptote Maximum: 82%

Cn1c(=O)n(C2CCC(=O)NC2=O)c2ccc(CC(C)(C)CN3CCN(c4nccc(-c5nc([C@]67CC[C@](CNC(=O)c8cc(F)c(O)c(F)c8F)(CC6)CC7)no5)n4)CC3)cc21 (mixture of isomers) [Example 134, N-{[4-(5-{2-[4-(3-{1-[(3RS)-2,6-dioxopiperidin-3-yl]-3-methyl-2-oxo-2,3-dihydro-1H-benzimidazol-5-yl}-2,2-dimethylpropyl)piperazin-1-yl]pyrimidin-4-yl}-1,2,4-oxadiazol-3-yl)bicyclo[2.2.2]octan-1-yl]methyl}-2,3,5-trifluoro-4-hydroxybenzamide, trifluoroacetate salt]
DC50: 6.5 nM | Huh7_HIBIT-HSD17β13_DC50 GMean Asymptote Maximum: 85%

O=C1CCN(c2cnn3cc(CCCN4CCO[C@]5(CCN(c6ccc7cn([C@H]8CC[C@H](CNC(=O)c9cc(F)c(O)c(F)c9F)CC8)nc7c6)C5)C4)ccc23)C(=O)N1 (single isomer, unassigned) [Example 30, trifluoroacetate salt]
DC50: 1.7 nM | Huh7_HIBIT-HSD17β13_DC50 GMean Asymptote Maximum: 74%

Cc1ccc(C(=O)N2CCN(CCOc3ncc(-c4ccc5cn(C6CCC(CNC(=O)c7cc(F)c(O)c(F)c7F)CC6)nc5c4)cn3)CC2)cc1N1CCC(=O)NC1=O.O=C(O)C(F)(F)F (stereo not drawn) [Example 7, N-{[(1r,4r)-4-{6-[2-(2-{4-[3-(2,4-Dioxo-1,3-diazinan-1-yl)-4-methylbenzoyl]piperazin-1-yl}ethoxy)pyrimidin-5-yl]-2H-indazol-2-yl}cyclohexyl]methyl}-2,3,5-trifluoro-4-hydroxybenzamide, trifluoroacetate salt]
DC50: 3 nM | Huh7_HIBIT-HSD17β13_DC50 GMean Asymptote Maximum: 78* %

Cl.O=C1CCN(c2cnn3cc(CCCN4CCN(c5cnc(-c6ccc7cn([C@H]8CC[C@H](CNC(=O)c9cc(F)c(O)c(F)c9F)CC8)nc7c6)cn5)CC4)ccc23)C(=O)N1 [Example 10, N-{[(1r,4r)-4-{6-[5-(4-{3-[3-(2,4-Dioxo-1,3-diazinan-1-yl)pyrazolo[1,5-a]pyridin-6-yl]propyl}piperazin-1-yl)pyrazin-2-yl]-2H-indazol-2-yl}cyclohexyl]methyl}-2,3,5-trifluoro-4-hydroxybenzamide, hydrochloride salt]
DC50: 0.28 nM | Huh7_HIBIT-HSD17β13_DC50 GMean Asymptote Maximum: 82%

Cc1ccc(C(=O)N2CCC3(CC2)CC(N2CCN(c4ncc(-c5ccc6cn(C7CCC(CNC(=O)c8cc(F)c(O)c(F)c8F)CC7)nc6c5)cn4)CC2)CO3)cc1N1CCC(=O)NC1=O (stereo not drawn) [Example 11, N-{[(1r,4r)-4-{6-[2-(4-{8-[3-(2,4-Dioxo-1,3-diazinan-1-yl)-4-methylbenzoyl]-1-oxa-8-azaspiro[4.5]decan-3-yl}piperazin-1-yl)pyrimidin-5-yl]-2H-indazol-2-yl}cyclohexyl]methyl}-2,3,5-trifluoro-4-hydroxybenzamide]
DC50: 0.94 nM | Huh7_HIBIT-HSD17β13_DC50 GMean Asymptote Maximum: 81%

— patent US20240238425A1, “HSD17B13 Inhibitors and/or Degraders” (Pfizer Inc., priority 2022, published 2024)
